A value given as a limit tells only on which side of the number the result lay.

On to `CS(=O)(=O)N1CC2(CCN(C(=O)Nc3cnc(-c4nncs4)cn3)CC2)c2cc(F)ccc21` [Compound 150, 5-fluoro-1-methylsulfonyl-N-[5-(1,3,4-thiadiazol-2-yl)-2-pyrazinyl]spiro[indoline-3,4′-piperidine]-1′-carboxamide], for which the melting point (commonly the temperature, or range, at which the solid turns liquid) fell in the range of 262 to 266 °C.
As to `CS(=O)(=O)N1CC2(CCN(C(=O)Nc3ccc(-c4nccs4)cc3)CC2)c2ccccc21` [Compound 111, 1-methylsulfonyl-N-[4-(2-thiazolyl)phenyl]spiro[indoline-3,4′-piperidine]-1′-carboxamide], the melting point lay in the range of 143.2 to 147.4 °C.
The value for `CS(=O)(=O)N1CC2(CCN(C(=O)Nc3cc(-c4ccccc4)no3)CC2)c2cccnc21` [Compound 1402, 7-aza-N-(3-phenyl-5-isoxazolyl)-1-methylsulfonylspiro[indoline-3,4′-piperidine]-1′-carboxamide] was 211 to 212 °C; that for `CS(=O)(=O)N1CC2(CCN(C(=O)Nc3cnc(-c4ncns4)cn3)CC2)c2cc(F)ccc21` [Compound 151, 5-fluoro-1-methylsulfonyl-N-[5-(1,2,4-thiadiazol-5-yl)-2-pyrazinyl]spiro[indoline-3,4′-piperidine]-1′-carboxamide] was 239 to 240 °C; that for `CS(=O)(=O)N1CC2(CCN(C(=O)Nc3nc4cc(F)ccc4s3)CC2)c2ccccc21` [Compound 129, N-(5-fluorobenzothiazol-2-yl)-1-methylsulfonylspiro[indoline-3,4′-piperidine]-1′-carboxamide] was 243 to 244 °C.
The value for `CS(=O)(=O)N1CC2(CCN(C(=O)Nc3cc4cc(Cl)ccc4[nH]3)CC2)c2ccccc21` [Compound 135, N-(5-chlorobenzoazol-2-yl)-1-methylsulfonylspiro[indoline-3,4′-piperidine]-1′-carboxamide] was 172 to 176 °C.
The value for `CS(=O)(=O)N1CC2(CCN(C(=O)Nc3cnc4ccc(Cl)cc4n3)CC2)c2ccccc21` [Compound 132, N-(7-chloroquinoxalin-2-yl)-1-methylsulfonylspiro[indoline-3,4′-piperidine]-1′-carboxamide] was 213 to 214 °C.
For the compound `C=CCc1cnc(NC(=O)N2CCC3(CC2)CN(S(C)(=O)=O)c2ccccc23)cn1` [Compound 105, 1-methylsulfonyl-N-[5-(2-propenyl)-2-pyrazinyl]spiro[indoline-3,4′-piperidine]-1′-carboxamide], the melting point lay within 180.5 to 182.7 °C.
`CS(=O)(=O)N1CC2(CCN(C(=O)Nc3cnc(-c4nncs4)cn3)CC2)c2ccc(F)cc21` [Compound 148, 6-fluoro-1-methylsulfonyl-N-[5-(1,3,4-thiadiazol-2-yl)-2-pyrazinyl]spiro[indoline-3,4′-piperidine]-1′-carboxamide] yielded a melting point of 242 to 243 °C.
`CC(=O)N1CC2(CCN(C(=O)Nc3nnc(-c4ccccc4)s3)CC2)c2ccccc21` [Compound 600, 1-Acetyl-N-(5-phenyl-1,3,4-thiadiazol-2-yl)spiro[indoline-3,4′-piperidine]-1′-carboxamide] returned a melting point of 260 °C.
`Cc1cccc2ccc(NC(=O)N3CCC4(CC3)CN(S(C)(=O)=O)c3ccccc34)nc12` [Compound 131, 1-methylsulfonyl-N-(8-methylquinolin-2-yl)spiro[indoline-3,4′-piperidine]-1′-carboxamide] returned a melting point of 219 to 220 °C.
In turn, `CS(=O)(=O)N1CC2(CCN(C(=O)Nc3ccc(C(=O)c4ccccc4)cc3)CC2)c2ccccc21.Cl` displayed a melting point of 222 to 225 °C.
Regarding `NS(=O)(=O)N1CC2(CCN(C(=O)Nc3nnc(-c4ccccc4)s3)CC2)c2ccccc21` [Compound 400, N-(5-phenyl-1,3,4-thiadiazol-2-yl)-1-sulfamoylspiro[indoline-3,4′-piperidine]-1′-carboxamide], the melting point is over 300 °C.
`CS(=O)(=O)N1CC2(CCN(C(=O)Nc3cnc(-c4ccccc4)cn3)CC2)c2ccc(F)cc21` [Compound 139, 6-fluoro-1-methylsulfonyl-N-(5-phenyl-2-pyrazinyl)spiro[indoline-3,4′-piperidine]-1′-carboxamide] gave a melting point of 234 to 237 °C.
`CS(=O)(=O)N1CC2(CCN(C(=O)Nc3cnc(-c4ncns4)cn3)CC2)c2ccc(F)cc21` [Compound 149, 6-fluoro-1-methylsulfonyl-N-[5-(1,2,4-thiadiazol-5-yl)-2-pyrazinyl]spiro[indoline-3,4′-piperidine]-1′-carboxamide] returned a melting point of 237 to 239 °C.
With `CS(=O)(=O)N1CC2(CCN(C(=O)Nc3ccc(N4CCCC4)nc3)CC2)c2ccccc21` [Compound 116, 1-methylsulfonyl-N-[2-(1-pyrrolidinyl)-5-pyridyl]spiro[indoline-3,4′-piperidine]-1′-carboxamide], the melting point fell in the range of 252 to 254 °C.
`CS(=O)(=O)N1CC2(CCN(C(=O)Nc3cnc(-c4ncns4)cn3)CC2)c2ccccc21` [Compound 147, 1-methylsulfonyl-N-[5-(1,2,4-thiadiazol-5-yl)-2-pyrazinyl]spiro[indoline-3,4′-piperidine]-1′-carboxamide] had a melting point of 234 to 238 °C.
`CCS(=O)(=O)N1CC2(CCN(C(=O)Nc3cn(-c4ccccc4F)cn3)CC2)c2ccccc21` [Compound 204, 1-ethylsulfonyl-N-[1-(2-fluorophenyl)imidazol-4-yl]spiro[indoline-3,4′-piperidine]-1′-carboxamide]: the melting point was in the range of 180 to 181.5 °C.
In the case of `CS(=O)(=O)N1CC2(CCN(C(=O)Nc3ccc(-c4ccccc4)cn3)CC2)c2ccccc21` [Compound 112, 1-methylsulfonyl-N-(5-phenyl-2-pyridyl)spiro[indoline-3,4′-piperidine]-1′-carboxamide], the melting point came out at 214 °C.
`CS(=O)(=O)N1CC2(CCN(C(=O)Nc3nsc(-c4ccccc4)n3)CC2)c2ccccc21` [Compound 123, 1-methylsulfonyl-N-(5-phenyl-1,2,4-thiadiazol-3-yl)spiro[indoline-3,4′-piperidine]-1′-carboxamide] yielded a melting point of 133 to 136 °C.
For `CS(=O)(=O)N1CC2(CCN(C(=O)Nc3ccc(-c4ccncc4)cc3)CC2)c2ccccc21`, the melting point lay within 272 to 274 °C.
As for `CCS(=O)(=O)N1CC2(CCN(C(=O)Nc3cn(-c4ccccc4)cn3)CC2)c2cc(F)ccc21.Cl`, the melting point is 140 to 141 °C.
The value for `CCc1cc(-c2ccc(NC(=O)N3CCC4(CC3)CN(S(C)(=O)=O)c3ccccc34)cc2)ccn1.Cl` was 220 to 222 °C; that for `NS(=O)(=O)N1CC2(CCN(C(=O)Nc3cc(-c4ccccc4)no3)CC2)c2ccccc21` [Compound 402, N-(3-phenylisoxazol-5-yl)-1-sulfamoylspiro[indoline-3,4′-piperidine]-1′-carboxamide] was 226 to 227 °C.
In turn, `COc1ccccc1-c1cnc(NC(=O)N2CCC3(CC2)CN(S(C)(=O)=O)c2ccccc23)cn1` [Compound 102, N-[5-(2-methoxyphenyl)-2-pyrazinyl]-1-methylsulfonylspiro[indoline-3,4′-piperidine]-1′-carboxamide] registered a melting point of 186 to 188 °C.
The compound `Cc1cccc2sc(NC(=O)N3CCC4(CC3)CN(S(C)(=O)=O)c3ccccc34)nc12` [Compound 137, N-(4-methylbenzothiazol-2-yl)-1-methylsulfonylspiro[indoline-3,4′-piperidine]-1′-carboxamide] showed a melting point of 182 to 183 °C.

The record behind these values is US6495559B2, “NPY Y5 receptor antagonists” (Merck & Co., Inc., priority 1998, dated 2002).
